The source of these data is patent US20060211700A1, “(R)-8,9-dichloro-2,3,4,4a-tetrahydro-1H,6H-pyrazino[1,2-a]quinoxalin-5-one for controlling IOP and treating glaucoma” (Alcon, Inc., priority 2005, published 2006).

Each structure is given as a SMILES string.

Experiment [1] addresses T1, human serotonin receptor clone 5-HT2B (Homo sapiens, UniProt P41595).
T1 construct: expressed in transfected cells; host or cells: CHO-K1
In words: In vitro functional response (aequorin luminescence) in CHO-K1 cells expressing 5-HT2B. As to conditions: for Emax: CHO-K1, relative to the response of α-methyl-5-HT; for EC50: CHO-K1 cells, aequorin, Gα16. It is filed as cell-based. The method, then: (§1) In Vitro Functional Response at 5-HT2 Receptors
(§2) Functional response at the 5-HT2 receptor subtypes was determined using CHO-K1 cells stably expressing mitochondrially-targeted bioluminescent aequorin, Gα16, and one of either human serotonin receptor clone 5-HT2A, 5-HT2B, or 5-HT2C. Prior to testing, cells were loaded in suspension with coelenterazine for 4-16 hours and directly injected onto different concentrations of the test compound. Light emitted from the cells was measured 20-30 seconds following receptor activation. A luminometer was used to record luminescence in response to the test compound. The mean response signal at each of 8-11 different concentrations was integrated to provide an estimation of receptor activation, expressed as the EC50 value. The efficacy of the response (Emax) at the 5-HT2A and 5-HT2B receptors is expressed relative to the response of α-methyl-5-HT under the same assay conditions while the efficacy at 5-HT2C is expressed relative to the response of 5-HT.

For experiment [2], the target named is T2, human serotonin receptor clone 5-HT2C (Homo sapiens, UniProt P28335).
T2 construct: expressed in transfected cells; host or cells: CHO-K1
T2 sequence (P28335 33-458): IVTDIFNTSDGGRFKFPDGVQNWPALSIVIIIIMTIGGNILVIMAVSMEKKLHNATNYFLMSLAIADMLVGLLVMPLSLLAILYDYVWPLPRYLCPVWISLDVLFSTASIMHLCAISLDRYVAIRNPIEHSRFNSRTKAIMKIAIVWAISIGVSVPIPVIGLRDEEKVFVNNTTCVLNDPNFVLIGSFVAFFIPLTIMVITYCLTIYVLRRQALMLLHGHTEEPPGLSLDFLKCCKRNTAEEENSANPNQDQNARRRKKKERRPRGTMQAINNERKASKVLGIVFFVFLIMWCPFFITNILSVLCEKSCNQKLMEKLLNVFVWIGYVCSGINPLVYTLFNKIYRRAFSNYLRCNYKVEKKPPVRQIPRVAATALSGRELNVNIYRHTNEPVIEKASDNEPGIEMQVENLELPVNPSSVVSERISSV
The experiment in a line: In vitro functional response (aequorin luminescence) in CHO-K1 cells expressing 5-HT2C. The following applies: for Emax: CHO-K1, relative to the response of 5-HT; for EC50: CHO-K1 cells, aequorin, Gα16. The class given is cell-based. How it is done: as §1, §2

Experiment [3] has as its system lasered (hypertensive) eyes of conscious cynomolgus monkeys. The experiment in a line: Acute IOP response in lasered (hypertensive) eyes of conscious cynomolgus monkeys. The class given is in vivo, cynomolgus monkey. The following applies: for IOP % change / IOP Change mmHg: lasered eye; for IOP lowering efficacy (in words): dosed at 300 μg. The method, then: Acute IOP Response in Lasered (Hypertensive) Eyes of Conscious Cynomolgus Monkeys
Intraocular pressure (IOP) can be determined with an Alcon Pneumatonometer after light corneal anesthesia with 0.1% proparacaine. Eyes are washed with saline after each measurement. After a baseline IOP measurement, test compound is instilled in one 30 μL aliquot to the right eyes only of nine cynomolgus monkeys. Vehicle is instilled in the right eyes of six additional animals. Subsequent IOP measurements are taken at 1, 3, and 6 hours.
The above method was used to determine the IOP lowering efficacy of 8,9-dichloro-2,3,4,4a-tetrahydro-1H,6H-pyrazino[1,2-a]quinoxalin-5-one when dosed at 300 μg.
The same method was used to evaluate the IOP lowering ability of the R enantiomer of the Compound (substantially free of the S enantiomer), dosed at 300 μg.

Experiment [4] deals with T3, human serotonin receptor clone 5-HT2A (Homo sapiens, UniProt P28223).
T3 construct: expressed in transfected cells; host or cells: CHO-K1
In words: In vitro functional response (aequorin luminescence) in CHO-K1 cells expressing 5-HT2A. The class given is cell-based. The following applies: for Emax: CHO-K1, relative to the response of α-methyl-5-HT; for EC50: CHO-K1 cells, aequorin, Gα16. How it is done: as §1, §2

Another experiment has as its target T4, 5-HT2C receptor (Homo sapiens, UniProt P28335).
T4 sequence (P28335 33-458): T2 sequence (P28335 33-458)
The following applies: R enantiomer versus S enantiomer; cited from earlier work.

Setting [5] is: 1 hr after topical dose of 300 μg (one 30 μL aliquot).
[6] abbreviates: 3 hrs after topical dose of 300 μg (one 30 μL aliquot).
Setting [7] is: 6 hrs after topical dose of 300 μg (one 30 μL aliquot).

T3 sequence (P28223 whole entry): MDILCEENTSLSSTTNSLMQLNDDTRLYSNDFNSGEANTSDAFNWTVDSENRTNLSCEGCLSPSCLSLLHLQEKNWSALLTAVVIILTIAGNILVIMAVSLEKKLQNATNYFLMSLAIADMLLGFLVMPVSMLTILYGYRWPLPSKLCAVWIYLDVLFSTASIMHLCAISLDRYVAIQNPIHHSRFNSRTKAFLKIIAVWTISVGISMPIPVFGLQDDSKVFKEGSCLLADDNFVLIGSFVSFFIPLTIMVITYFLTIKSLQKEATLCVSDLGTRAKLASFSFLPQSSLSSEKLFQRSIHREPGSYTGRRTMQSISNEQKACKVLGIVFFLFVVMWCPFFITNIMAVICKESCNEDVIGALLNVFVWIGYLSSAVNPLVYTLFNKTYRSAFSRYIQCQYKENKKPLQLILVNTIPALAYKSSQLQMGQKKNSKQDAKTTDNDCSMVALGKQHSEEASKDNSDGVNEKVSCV
T1 sequence (P41595 whole entry): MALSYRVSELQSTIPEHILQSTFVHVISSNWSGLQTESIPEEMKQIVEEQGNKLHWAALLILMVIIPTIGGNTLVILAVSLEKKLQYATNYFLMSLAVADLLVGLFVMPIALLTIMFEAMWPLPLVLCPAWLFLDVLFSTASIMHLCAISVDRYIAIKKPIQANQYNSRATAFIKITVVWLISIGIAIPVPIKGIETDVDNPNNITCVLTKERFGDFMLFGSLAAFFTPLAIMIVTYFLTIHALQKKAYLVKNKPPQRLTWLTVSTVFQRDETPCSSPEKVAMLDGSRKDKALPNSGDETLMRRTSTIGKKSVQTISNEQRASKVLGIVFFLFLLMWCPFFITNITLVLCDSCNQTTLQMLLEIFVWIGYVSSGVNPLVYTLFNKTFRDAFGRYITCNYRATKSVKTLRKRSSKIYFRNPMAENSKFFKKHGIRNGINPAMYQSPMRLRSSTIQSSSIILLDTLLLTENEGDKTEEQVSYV

In general, Emax refers to the maximal effect, on the per cent scale that the assay sets. One may read the EC50 as the midpoint of the concentration-response curve. The low end stands for an effect from little substance, the high end for a need for much substance. For the compound `O=C1Nc2cc(Cl)c(Cl)cc2N2CCNCC12` (racemic) [Racemic, 8,9-dichloro-2,3,4,4a-tetrahydro-1H,6H-pyrazino[1,2-a]quinoxalin-5-one], the Emax in experiment [1] turned out to be 98%; in experiment [2], 105%; in experiment [4] it was 112%. Besides, the results for the EC50 in experiment [1], in experiment [2] and in experiment [4] were 76.8 nM, 4.2 nM and 37.5 nM, respectively. Besides, the IOP % change is given as −5.7% in experiment [3] (setting [5]), −21.9% in experiment [3] (setting [6]) and −29.3% in experiment [3] (setting [7]). Further, the “IOP Change mmHg” value is on record as −2.8 mmHg in experiment [3] (setting [5]), −9.6 mmHg in experiment [3] (setting [6]) and −12.8 mmHg in experiment [3] (setting [7]). Besides, in experiment [3], the “IOP lowering efficacy (in words)” value is reported as “significant decrease in IOP”.
`O=C1Nc2cc(Cl)c(Cl)cc2N2CCNC[C@H]12` [R enantiomer, (R)-8,9-dichloro-2,3,4,4a-tetrahydro-1H,6H-pyrazino[1,2-a]quinoxalin-5-one]: the Emax in experiment [1] was determined as 99%; in experiment [2], 108%; in experiment [4], 108%. Besides, the EC50 in experiment [1] is 31.6 nM; in experiment [2], 2.6 nM; in experiment [4] it was 20.5 nM. In addition, the “potency relative to the S enantiomer at the 5-HT2C receptor” value at 5-HT2C receptor is “approximately 40 fold”. Also, the IOP % change is reported as −12.9% in experiment [3] (setting [5]), −26.3% in experiment [3] (setting [6]) and −34.7% in experiment [3] (setting [7]). The “IOP Change mmHg” value is on record as −5.8 mmHg in experiment [3] (setting [5]), −11.7 mmHg in experiment [3] (setting [6]) and −15.0 mmHg in experiment [3] (setting [7]). Besides, the “IOP lowering efficacy (in words)” value in experiment [3] is “significant decrease in IOP”.
For the compound `O=C1Nc2cc(Cl)c(Cl)cc2N2CCNC[C@@H]12` [S enantiomer], the Emax in experiment [1] is 45%; in experiment [2], 105%; in experiment [4] it was 96%. Further, the EC50 in experiment [1] is 2540 nM; in experiment [2], 614 nM; in experiment [4], 2260 nM.
